Results published in PubChem BioAssay (NCI).
“And” between values parts separate entries of the source, which are not always exact repeats. Equal entries are not always repeated.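 Each compound was tested at five concentrations against cells in 96-well plates for 48 hours. GI50 marks 50% less growth. TGI: concentration producing complete growth inhibition.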

Assays:
Assay in all cases: NCI tumour cell line growth inhibition, 48 h
EKVX NSCLC = tested on: EKVX NSCLC
ACHN renal = tested on: ACHN renal
UACC-257 melanoma = tested on: UACC-257 melanoma
HCT-15 colon = tested on: HCT-15 colon
MDA-MB-435 = tested on: MDA-MB-435
HS 578T breast = tested on: HS 578T breast
BT-549 breast = tested on: BT-549 breast
RXF 393 renal = tested on: RXF 393 renal
K-562 leukemia = tested on: K-562 leukemia
LOX IMVI melanoma = tested on: LOX IMVI melanoma

Compound | GI50 (EKVX NSCLC) | TGI (EKVX NSCLC) | GI50 (ACHN renal) | TGI (ACHN renal) [µM] | GI50 (UACC-257 melanoma) | TGI (UACC-257 melanoma) | GI50 (HCT-15 colon) | TGI (HCT-15 colon) [µM] | GI50 (MDA-MB-435) | TGI (MDA-MB-435) | GI50 (HS 578T breast) | TGI (HS 578T breast) | GI50 (BT-549 breast) | TGI (BT-549 breast) | GI50 (RXF 393 renal) | TGI (RXF 393 renal) | GI50 (K-562 leukemia) | TGI (K-562 leukemia) [µM] | GI50 (LOX IMVI melanoma) | TGI (LOX IMVI melanoma)
COc1ccc2[nH]c(=O)c3c4ccccc4cn3c2c1 | 0.878 µM | 12.4 µM | 0.486 µM | 1.72 | 2.67 µM | 11.1 µM | 0.31 µM | 1.4 | 0.154 µM | 0.411 µM | 0.25 µM | 0.775 µM | 7.3 µM | 20.9 µM | 0.312 µM | 1.09 µM | 0.276 µM | 1.33 | 0.776 µM | 2.11 µM
COC(=O)CCC(=O)C(=O)OC | 20600 µM |  | 16300 µM |  | 30800 µM |  | 31500 µM |  | 62100 µM |  | 26600 µM | 97100 µM | 26300 µM | 96200 µM | 30300 µM | 95100 µM | 33500 µM |  | 13300 µM | 
CCOC(=O)c1ccc2[nH]c(-c3ccc(S(=O)(=O)F)cc3)cc(=O)c2c1 |  | > 100 µM |  | 84.2 |  | > 100 µM |  | > 100 |  | > 100 µM |  | > 100 µM |  | > 100 µM |  | > 100 µM |  | > 100 |  | > 100 µM
CCOC(=O)c1c2c(c(O)c3ccccc3c(O)n(Cc3ccc(OC)cc3)c1C)C(=O)C=CC2=O | > 100 µM | > 100 µM | > 100 µM | > 100 | > 100 µM | > 100 µM | > 100 µM | > 100 | > 100 µM | > 100 µM | > 100 µM | > 100 µM | > 100 µM | > 100 µM | > 100 µM | > 100 µM | 76.9 µM | > 100 | > 100 µM | > 100 µM
CCSCC1CC(O)(c2ccccc2)C(c2ccccc2)C(c2ccc(Cl)cc2)O1 (stereo not drawn) | 1.38 µM | 4.29 µM | 1.81 µM | 3.68 | 1.83 µM | 3.95 µM | 1.69 µM | 4.5 | 1.74 µM | 3.84 µM | 2.5 µM | 8.87 µM | 1.76 µM | 3.63 µM | 0.688 µM | 2.06 µM | 1.89 µM | 8.37 | 1.65 µM | 3.05 µM
Cc1ccc([N+](=O)[O-])cc1NC(=O)Nc1cccc(F)c1 | 3.68 µM | > 100 µM | 3.78 µM | 23 | 4.23 µM | > 100 µM | 3.44 µM | > 100 | 3.8 µM | > 100 µM | 7.92 µM | 45.3 µM | 45.1 µM | > 100 µM | 18.4 µM | 61.2 µM | 2.63 µM | 71.4 | 5.78 µM | > 100 µM
C[C@@H]1COCCN1c1cc(C2([S@](C)(=N)=O)CC2)nc(-c2ccnc3[nH]ccc23)n1 | 6.07 µM and > 10 µM | 61.7 µM and > 10 µM | 0.818 µM and 1.65 µM | > 100 | 14 µM and > 10 µM | 74 µM and > 10 µM | 4.34 µM and 4.51 µM | > 100 | 3.74 µM and 4.29 µM | 35.7 µM and > 10 µM | 2.93 µM and 3.72 µM | 29.6 µM and > 10 µM | 1.83 µM and 2.92 µM | 27.7 µM and > 10 µM | 1.33 µM and 3.34 µM | 6.37 µM and > 10 µM | 3.76 µM and 2.96 µM | > 100 | 0.903 µM and 2.75 µM | 12.7 µM and > 10 µM
O=C1c2ccccc2-c2c1c1ccccc1c(=O)n2CCCCNCCCn1c2c(c3ccccc3c1=O)C(=O)c1ccccc1-2 | 0.782 µM | 1.75 µM | 0.0416 µM | 2.31 | 3.23 µM | 13.8 µM | 0.143 µM | 0.624 | 0.851 µM | 4.32 µM | 0.822 µM | 16 µM | 1.34 µM | 4.15 µM | 0.33 µM | 7.08 µM | 0.205 µM | 9.62 | 0.0499 µM | 0.76 µM
CCCCON(OC(=O)c1ccccc1)C(=O)c1ccccc1 | > 100 µM | > 100 µM | > 100 µM | > 100 | > 100 µM | > 100 µM | > 100 µM | > 100 | > 100 µM | > 100 µM | > 100 µM | > 100 µM | > 100 µM | > 100 µM | > 100 µM | > 100 µM | 93.4 µM | > 100 | > 100 µM | > 100 µM
